# Legend:
# Type in all cases: in vivo
# [1] = test system: full-thickness wounds in STZ-challenged minipigs; assay: Wound healing in streptozotocin (STZ)-challenged minipigs
# Method: Wounds (twelve 15.15-mm full-thickness wounds) were induced in STZ-challenged minipigs. STZ challenge (160 mg/kg) was performed 14 days before wounding in 15 animals, two out of 15 animals had to be sacrificed due to blood glucose instability. The remaining 13 animals (body weight around 25 kg: 27.92±2.35 kg on the day of STZ dosing, Day 0: 24.35±2.14 kg and Day 17: 23.27±2.24 kg) were randomized to 3 groups:
# Group I) placebo: Animal 1, 8, 10 and 13; Group II) 0.6 mg/kg Compound of Ex 8: Animal 2, 7, 11 and 12; Group III) 0.1 mg/kg Compound of Ex. 8: Animal 3, 4, 6, 14 and 15
# Oral gavage was done by gelatin capsules containing Compound of Ex. 8 or lactose as placebo (25 kg body weight was assumed for all animals).
# Topical treatment was performed using Compound of Ex. 8 in a concentration of 0.06 mg/mL in a Pluronic® gel matrix or as placebo Pluronic® gel at a volume of 1 mL per wound. The whole study was performed in a blinded manner. The 12 wounds per animal were treated according to Table 1 to combine oral treatment with and without topical treatment in this study. Wounds were closed by a sterile reclosable bag system. Animals were treated orally BID for 17 days starting after wounding (Day 0) and topically once daily on Days 0, 2, 5, 8, 11 and 14. On Day 17, wounds were harvested and animals sacrificed.
# The primary endpoint of this study was wound size over study time. Wound size was evaluated via photographs and evaluated by photoshop under blinded conditions. Wound size was shown in absolute numbers as well as percent size vs. wound size on Day 0. In addition, re-epithelialization as well as wound contracture were determined The mean of all 12 wounds per animal was compared to Day 0. […] Between Day 5 and Day 11, a differentiation between the animals was observed.
# [2] = test system: diabetic ZDF fa/fa rats, ligature of the left iliac artery; assay: Effects on ankle-brachial index in ZDF rats (unilateral hindlimb ischemia model)
# Method: Compound of Ex. 8 induced a 10 to 30% improvement in the perfusion index (FIG. 7). […] Corresponding plasma concentrations were measured between 4 and 47 μg/L.
# FIG. 6: Effects of Compound of Ex. 8 on perfusion pressure indices. Shown are baseline value (Od) as well as perfusion pressure indices after ligature of the left iliac artery and 2 weeks of daily treatment (14 d) with Compound of Ex. 8 in diabetic ZDF fa/fa rats (raw data; 10 animals) • Student t-test, Compound of Ex. 8 versus vehicle; ZDF=Zucker diabetic fatty
# FIG. 7: Percent change in perfusion pressure indices by Compound of Ex. 8 after 14 days (14 d) of daily treatment compared to baseline values (mean±SEM; 10 animals) • SEM=standard error of mean; ZDF=Zucker diabetic fatty
# [3] = test system: ischemic wounds in New Zealand white rabbits; assay: Wound healing in the ischemic rabbit ear model
# Method: Ischemic wounds (three 7 mm full-thickness dermal punches on the inner surface of both ears) were induced in New Zealand white rabbits. Oral gavage was done through a nasogastric tube or catheter. 20 rabbits were treated with Compound of Ex. 8 (0.3 mg/kg; n=10) or vehicle (10% ethanol, 30% PEG 400, 60% tap water, n=10) through the catheter daily at multiple time points [post-wounding days (POD) 3, 4, 5, 6 and 7]. Wounds were harvested on POD 10. For histologic analysis, one-half of wounds including the surrounding normal skin in rectangular shape was taken. One-half of the wound was frozen for further molecular analysis. Tissues underwent routine processing, paraffin embedding, and sectioning. A 4 μm cross section through the center of each rectangular biopsy was taken. The tissues were stained with hematoxylin and eosin and examined under light microscopy. Several histomorphometric measurements were determined, using a digital image analysis system (NIS-Elements Basic Research; Nikon Instech Co, Kanagawa, Japan) at 2 fold and 10 fold magnification. Each parameter was measured in a blinded manner.
# In addition, tissue oxygen tension and blood flow were examined by the OxyLite® system (Oxford Optronix). Oxygen tension and blood flow were measured on POD 3, 7 and 10 in each rabbit. The oxygen tension unit is mmHg and the blood flow unit is blood PUs. The results were presented as ratio of O2-ischemia/O2-non-ischemia, or flow-ischemia/flow-non-ischemia. Analysis was performed by comparison between control and treatment groups on POD 3, 7 and 10.
# [4] = test system: atherosclerotic ApoE-/- mice, hindlimb ischemia; assay: Effects on running distance in apolipoprotein E knockout mice after hindlimb ischemia
# Method: To evaluate effects more closely, the percent change in running distance compared to the run-in values (2 week run-in period before ligature) of all animals were analyzed.
# FIG. 8: Effects of Compound of Ex. 8 on daily running distance in atherosclerotic ApoE-/- mice before and after induction of bilateral hindlimb ischemia (mean±SEM; 10 to 11 animals) • ApoE-/-=apolipoprotein E knockout; Ctrl.=control; SEM=standard error of mean
# [5] = 0.6 mg treated wounds vs placebo
compound,measurement,setting,value
"O=C(c1cnc(N2CC3(COC3)C2)nc1)N1CCC(N2CCc3ccccc3C2)CC1 [Compound of Ex. 8, [4-(3,4-Dihydroisoquinolin-2(1H)-yl)piperidin-1-yl][2-(2-oxa-6-azaspiro[3.3]hept-6-yl)pyrimidin-5-yl]methanone]","wound size, wounds without topical treatment (Wounds 1 to 6)","[1]; 0.1 mg/kg oral BID vs placebo, Day 2 (P=0.011) and Day 5 (P=0.014)",significant improvement vs. placebo
same,wound contracture,"[1]; 0.1 mg/kg oral BID, Day 2, 5, 8, 11 and 17",improvement in wound contracture being significant
same,course of wound healing (variability),"[1]; 0.1 mg/kg oral BID, between Day 5 and Day 11",greater heterogeneity
same,histology: cell proliferation,[1]; [5],reduced cell proliferation
same,histology: collagen III/I ratio,[1]; [5],lower collagen III/I ratio
same,histology: detectable vessels,[1]; [5],more detectable vessels
same,histology: differentiation level of the epidermis,[1]; [5],increased differentiation level of the epidermis
same,histology: inflammation,[1]; [5],reduced inflammation
same,histology: re-epithelialization level,[1]; [5],higher re-epithelialization level
same,histology: structuring of basement membranes defined by laminin detection,[1]; [5],increased structuring of basement membranes
same,histological evaluation of wound healing,"[1]; 0.6 mg treated wounds vs placebo, wounds harvested Day 17",more advanced wound healing
same,"wound size over time, mean of all wounds","[1]; 0.6 mg/kg oral BID 17 days vs placebo, all 12 wounds per animal, all days (FIG. 1)",significantly improved wound healing
same,"wound size, wounds without topical treatment (Wounds 1 to 6)","[1]; 0.6 mg/kg oral BID vs placebo, all values (FIG. 2)",significantly better compared to the placebo group
same,wound contracture,"[1]; 0.6 mg/kg oral BID, Day 2, 5, 8 and 11",improvement in wound contracture being significant
same,"difference in wound size vs placebo, wounds without topical treatment (Wounds 1 to 6)","[1]; 0.6 mg/kg oral BID, Day 8",about 21.6%
same,re-epithelialization,"[1]; 0.6 mg/kg oral BID, Day 17, two animals of the group",complete and stable re-epithelialization
same,speed of wound healing,"[1]; 0.6 mg/kg oral BID, between Day 5 and Day 11, vs placebo and 0.1 mg/kg groups",quicker wound healing compared to the 2 other groups
same,"wound size, wounds without topical treatment (Wounds 1 to 6), dose comparison","[1]; 0.6 mg/kg vs 0.1 mg/kg group, Days 8, 11, 14 and 17",significantly better compared to the 0.1 mg/kg group
same,perfusion pressure,"[2]; 0.3 mg/kg (most effective dose), 14 d daily treatment",significant increase in perfusion pressure
same,muscle function in the ligated limb,"[2]; 0.1, 0.3 and 1 mg/kg",slight tendency toward improved muscle function
same,perfusion indices,"[2]; 0.1, 0.3 and 1 mg/kg, 2 weeks of daily treatment (FIG. 6)",increase in perfusion indices at all doses
same,granulation area,"[3]; 0.3 mg/kg oral, POD 3-7, wounds harvested POD 10, P=0.07 vs control","133,630+20,208 μm^2"
same,epithelial gap,"[3]; 0.3 mg/kg oral, POD 3-7, wounds harvested POD 10, no significant difference vs control","5,212+213 μm"
same,blood flow ratio (flow-ischemia/flow-non-ischemia),"[3]; 0.3 mg/kg, POD 10, P=0.018 vs control",0.495
same,oxygen tension ratio (O2-ischemia/O2-non-ischemia),"[3]; 0.3 mg/kg, POD 10, P=0.079 vs control",0.238
same,change in blood flow ratio from POD 3 to POD 10,"[3]; 0.3 mg/kg, same rabbit, P=0.108 vs control",0.149
same,change in oxygen tension ratio from POD 3 to POD 10,"[3]; 0.3 mg/kg, same rabbit, P=0.322 vs control",0.082
same,"total running distance, percent change vs run-in values",[4]; 10 μg/ml (FIG. 9),tendency toward an improvement
same,"running distance, area under the curve from Day 0 to Day 28",[4]; 30 μg/kg vs placebo,significant improvements compared to placebo
same,"running distance, percent change vs run-in values","[4]; 30 μg/kg, several days during the 4 week observation period (FIG. 10)",significant improvement in running distance
same,"running distance, area under the curve from Day 0 to Day 28",[4]; 100 μg/kg vs placebo,significant improvements compared to placebo
same,"running distance, percent change vs run-in values","[4]; 100 μg/kg, several days during the 4 week observation period (FIG. 11)",significant improvement in running distance
same,running distance,"[4]; oral administration of 10, 30 and 100 μg/mL, after induction of hindlimb ischemia (FIG. 8)",increase in running distance
